In US12161722B2, “Bifunctional heterocyclic compound having BTK degradation function via ubiquitin proteasome pathway, and use thereof” (KOREA RESEARCH INSTITUTE OF CHEMICAL TECHNOLOGY, priority 2021, dated 2024):

Molecular target: T1, WT BTK protein (Homo sapiens, UniProt Q06187)
T1 construct: measured for intracellular BTK protein levels by Western blotting; endogenous in cells; host or cells: TMD-8 or RAMOS cells
Assay: BTK protein degradation assay (Western blotting), WT BTK
Type: cell-based
Settings: concentration range accounting for 50% degradation of WT BTK protein, TMD-8 or RAMOS cells, 24 hours
Outline: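 BTK levels were read by Western blotting (GAPDH and β-actin normalisers) in RIPA lysates of TMD-8 cells exposed to compounds for 24 h at 1×10^6 cells/mL. Results scored in ranges of the concentration producing 50% loss of WT BTK.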

T1 sequence (Q06187 whole entry): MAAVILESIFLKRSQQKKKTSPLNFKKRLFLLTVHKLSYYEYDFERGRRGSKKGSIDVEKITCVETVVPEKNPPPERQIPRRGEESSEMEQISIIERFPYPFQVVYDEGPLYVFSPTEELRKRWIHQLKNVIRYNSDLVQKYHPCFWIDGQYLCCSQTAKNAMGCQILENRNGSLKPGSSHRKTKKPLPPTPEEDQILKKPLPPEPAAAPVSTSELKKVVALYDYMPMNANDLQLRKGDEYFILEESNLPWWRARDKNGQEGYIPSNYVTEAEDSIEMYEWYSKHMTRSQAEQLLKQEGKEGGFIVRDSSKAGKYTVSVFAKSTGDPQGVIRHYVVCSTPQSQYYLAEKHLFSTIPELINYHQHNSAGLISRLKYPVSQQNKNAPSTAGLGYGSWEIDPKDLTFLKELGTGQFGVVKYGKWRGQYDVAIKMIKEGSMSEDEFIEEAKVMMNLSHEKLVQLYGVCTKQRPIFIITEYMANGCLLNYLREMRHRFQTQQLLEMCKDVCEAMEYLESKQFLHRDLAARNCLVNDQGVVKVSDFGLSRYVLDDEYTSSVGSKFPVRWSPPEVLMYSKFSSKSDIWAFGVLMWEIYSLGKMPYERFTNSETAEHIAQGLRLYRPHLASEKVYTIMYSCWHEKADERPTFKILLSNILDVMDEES

Cc1cccc(C)c1Nc1nn(C)c2nc(Nc3ccc(CCNC(=O)C4CCN(C(=O)Nc5ccc6c(c5)CN(C5CCC(=O)NC5=O)C6=O)CC4)cc3)ncc12 (stereo not shown) [Compound 102, N4-(4-((3-((2,6-Dimethylphenyl)amino)-1-methyl-1H-pyrazolo[3,4-d]pyrimidin-6-yl)amino)phenethyl)-N1-(2-(2,6-dioxopiperidin-3-yl)-1-oxoisoindolin-5-yl)piperidine-1,4-dicarboxamide]
DC50: 10 to 1000 nM

Cc1cccc(C)c1Nc1nn(C)c2nc(Nc3ccc4c(c3)CN(CC(=O)N3CCN(c5ccc6c(c5)CN(C5CCC(=O)NC5=O)C6=O)CC3)CC4)ncc12 (stereo not shown) [Compound 103, 3-(5-(4-(2-(7-((3-((2,6-dimethylphenyl)amino)-1-methyl-1H-pyrazolo[3,4-d]pyrimidin-6-yl)amino)-3,4-dihydroisoquinolin-2 (1H)-yl)acetyl)piperazin-1-yl)-1-oxoisoindolin-2-yl)piperidin-2,6-one]
DC50: 10 to 1000 nM

Cc1cccc(C)c1Nc1nn(C)c2nc(Nc3ccc4c(c3)CN(C(=O)CN3CCN(c5ccc6c(c5)CN(C5CCC(=O)NC5=O)C6=O)CC3)CC4)ncc12 (stereo not shown) [Compound 104, 3-(5-(4-(2-(7-((3-((2,6-Dimethylphenyl)amino)-1-methyl-1H-pyrazolo[3,4-d]pyrimidin-6-yl)amino)-3,4-dihydroisoquinolin-2 (1H)-yl)-2-oxoethyl)piperazin-1-yl)-1-oxoisoindolin-2-yl)piperidin-2,6-one]
DC50: 0.1 to 10 nM

Cc1cccc(C)c1Nc1nn(C)c2nc(Nc3ccc4c(c3)CN(C(=O)COc3ccc5c(c3)CN(C3CCC(=O)NC3=O)C5=O)CC4)ncc12 (stereo not shown) [Compound 105, 3-(5-(2-(7-((3-((2,6-Dimethylphenyl)amino)-1-methyl-1H-pyrazolo[3,4-d]pyrimidin-6-yl)amino)-3,4-dihydroisoquinolin-2 (1H)-yl)-2-oxoethoxy)-1-oxoisoindolin-2-yl)piperidin-2,6-one]
DC50: 0.1 to 10 nM

Cc1cccc(C)c1Nc1nn(C)c2nc(Nc3ccc4c(c3)CN(CC(=O)N3CCC(Oc5ccc6c(c5)CN(C5CCC(=O)NC5=O)C6=O)CC3)CC4)ncc12 (stereo not shown) [Compound 106, 3-(5-((1-(2-(7-((3-((2,6-dimethylphenyl)amino)-1-methyl-1H-pyrazolo[3,4-d]pyrimidin-6-yl)amino)-3,4-dihydroisoquinolin-2 (1H)-yl)acetyl)piperidin-4-yl)oxy)-1-oxoisoindolin-2-yl)piperidin-2,6-one]
DC50: 10 to 1000 nM

Cc1cccc(C)c1Nc1nn(C)c2nc(Nc3ccc4c(c3)CN(CC3CCN(c5ccc6c(c5)C(=O)N(C5CCC(=O)N(COC(=O)C(C)(C)C)C5=O)C6=O)CC3)CC4)ncc12 (stereo not shown) [Compound 107, (3-(5-(4-((7-((3-((2,6-dimethylphenyl)amino)-1-methyl-1H-pyrazolo[3,4-d]pyrimidin-6-yl)amino)-3,4-dihydroisoquinolin-2 (1H)-yl)methyl)piperidin-1-yl)-1,3-dioxoisoindolin-2-yl)-2,6-dioxopiperidin-1-yl)methyl pivalate]
DC50: 0.1 to 10 nM

Cc1cccc(C)c1Nc1nn(C)c2nc(Nc3ccc4c(c3)CN(CC(=O)Nc3ccc5c(c3)CN(C3CCC(=O)NC3=O)C5=O)CC4)ncc12 (stereo not shown) [Compound 108, 2-(7-((3-((2,6-Dimethylphenyl)amino)-1-methyl-1H-pyrazolo[3,4-d]pyrimidin-6-yl)amino)-3,4-dihydroisoquinolin-2 (1H)-yl)-N-(2-(2,6-dioxopiperidin-3-yl)-1-oxoisoindolin-5-yl)acetamide]
DC50: 0.1 to 10 nM

Cc1cccc(C)c1Nc1nn(C)c2nc(Nc3ccc4c(c3)CCN(CC3CCN(c5ccc6c(c5)C(=O)N(C5CCC(=O)NC5=O)C6=O)CC3)C4)ncc12 (stereo not shown) [Compound 109, 5-(4-((6-((3-((2,6-Dimethylphenyl)amino)-1-methyl-1H-pyrazolo[3,4-d]pyrimidin-6-yl)amino)-3,4-dihydroisoquinolin-2 (1H)-yl)methyl)piperidin-1-yl)-2-(2,6-dioxopiperidin-3-yl)isoindoline-1,3-dione]
DC50: 10 to 1000 nM

Cc1cccc(C)c1Nc1nn(C)c2nc(Nc3ccc4c(c3)CCN(CC3CCN(C(=O)CNc5ccc6c(c5)C(=O)N(C5CCC(=O)NC5=O)C6=O)CC3)C4)ncc12 (stereo not shown) [Compound 110, 5-((2-(4-((6-((3-((2,6-Dimethylphenyl)amino)-1-methyl-1H-pyrazolo[3,4-d]pyrimidin-6-yl)amino)-3,4-dihydroisoquinolin-2 (1H)-yl)methyl)piperidin-1-yl)-2-oxoethyl)amino)-2-(2,6-dioxopiperidin-3-yl)isoindoline-1,3-dione]
DC50: 0.1 to 10 nM

COc1ccc(C(=O)N2CCC(CC(=O)N3CCc4cc(Nc5ncc6c(Nc7c(C)cccc7C)nn(C)c6n5)ccc4C3)CC2)cc1N1CCC(=O)NC1=O [Compound 111, 1-(5-(4-(2-(6-((3-((2,6-Dimethylphenyl)amino)-1-methyl-1H-pyrazolo[3,4-d]pyrimidin-6-yl)amino)-3,4-dihydroisoquinolin-2 (1H)-yl)-2-oxoethyl)piperidine-1-carbonyl)-2-methoxyphenyl)dihydropyrimidine-2,4 (1H,3H)-dione]
DC50: 10 to 1000 nM

COc1ccc(C(=O)N2CCC(CC(=O)N3CCc4ccc(Nc5ncc6c(Nc7c(C)cccc7C)nn(C)c6n5)cc4C3)CC2)cc1N1CCC(=O)NC1=O [Compound 112, 1-(5-(4-(2-(7-((3-((2,6-Dimethylphenyl)amino)-1-methyl-1H-pyrazolo[3,4-d]pyrimidin-6-yl)amino)-3,4-dihydroisoquinolin-2 (1H)-yl)-2-oxoethyl)piperidine-1-carbonyl)-2-methoxyphenyl)dihydropyrimidine-2,4 (1H,3H)-dione]
DC50: 1000 to 10000 nM

Cc1cccc(C)c1Nc1nn(C)c2nc(Nc3ccc4c(c3)CN(CC(=O)N3CCC(Oc5ccc6c(c5)C(=O)N(C5CCC(=O)NC5=O)C6)CC3)CC4)ncc12 (stereo not shown) [Compound 116, 3-(6-((1-(2-(7-((3-((2,6-dimethylphenyl)amino)-1-methyl-1H-pyrazolo[3,4-d]pyrimidin-6-yl)amino)-3,4-dihydroisoquinolin-2 (1H)-yl)acetyl)piperidin-4-yl)oxy)-1-oxoisoindolin-2-yl)piperidin-2,6-one]
DC50: 1000 to 10000 nM

Cc1cccc(C)c1Nc1nn(C)c2nc(Nc3ccc4c(c3)CN(C(=O)CN3CCC(Oc5ccc6c(c5)C(=O)N(C5CCC(=O)NC5=O)C6)CC3)CC4)ncc12 (stereo not shown) [Compound 117, 3-(6-((1-(2-(7-((3-((2,6-dimethylphenyl)amino)-1-methyl-TH-pyrazolo[3,4-d]pyrimidin-6-yl)amino)-3,4-dihydroisoquinolin-2 (1H)-yl)-2-oxoethyl)piperidin-4-yl)oxy)-1-oxoisoindolin-2-yl)piperidin-2,6-one]
DC50: 1000 to 10000 nM

COc1ccc(Nc2nn(C)c3nc(Nc4ccc5c(c4)CN(CC4CCN(c6ccc7c(c6)C(=O)N(C6CCC(=O)NC6=O)C7=O)CC4)CC5)ncc23)c(C)c1 (stereo not shown) [Compound 118, 2-(2,6-Dioxopiperidin-3-yl)-5-(4-((7-((3-((4-methoxy-2-methylphenyl)amino)-1-methyl-1H-pyrazolo[3,4-d]pyrimidin-6-yl)amino)-3,4-dihydroisoquinolin-2 (1H)-yl)methyl)piperidin-1-yl)isoindoline-1,3-dione]
DC50: 1000 to 10000 nM

Cc1cc(F)ccc1Nc1nn(C)c2nc(Nc3ccc4c(c3)CN(CC3CCN(c5ccc6c(c5)C(=O)N(C5CCC(=O)NC5=O)C6=O)CC3)CC4)ncc12 (stereo not shown) [Compound 121, 2-(2,6-Dioxopiperidin-3-yl)-5-(4-((7-((3-((4-fluoro-2-methylphenyl)amino)-1-methyl-1H-pyrazolo[3,4-d]pyrimidin-6-yl)amino)-3,4-dihydroisoquinolin-2 (1H)-yl)methyl)piperidin-1-yl)isoindoline-1,3-dione]
DC50: 10 to 1000 nM

Cc1cc(NC(=O)c2cccc(C(F)(F)F)c2)ccc1Nc1nn(C)c2nc(Nc3ccc4c(c3)CN(CC3CCN(c5ccc6c(c5)C(=O)N(C5CCC(=O)NC5=O)C6=O)CC3)CC4)ncc12 (stereo not shown) [Compound 122, N-(4-((6-((2-((1-(2-(2,6-Dioxopiperidin-3-yl)-1,3-dioxoisoindolin-5-yl)piperidin-4-yl)methyl)-1,2,3,4-tetrahydroisoquinolin-7-yl)amino)-1-methyl-1H-pyrazolo[3,4-d]pyrimidin-3-yl)amino)-3-methylphenyl)-3-(trifluoromethyl)benzamide]
DC50: 10 to 1000 nM

Cc1cccc(C)c1Nc1nn(C)c2nc(Nc3ccc4c(c3)CN(CCNc3ccc5c(c3)C(=O)N(C3CCC(=O)NC3=O)C5=O)CC4)ncc12 (stereo not shown) [Compound 123, 5-((2-(7-((3-((2,6-Dimethylphenyl)amino)-1-methyl-1H-pyrazolo[3,4-d]pyrimidin-6-yl)amino)-3,4-dihydroisoquinolin-2 (1H)-yl)ethyl)amino)-2-(2,6-dioxopiperidin-3-yl)isoindoline-1,3-dione]
DC50: 10 to 1000 nM

Cc1cccc(C)c1Nc1nn(C)c2nc(Nc3ccc4c(c3)CN(C(=O)C3CC5(CCN(c6ccc7c(c6)C(=O)N(C6CCC(=O)NC6=O)C7=O)CC5)C3)CC4)ncc12 (stereo not shown) [Compound 124, 5-(2-(7-((3-((2,6-dimethylphenyl)amino)-1-methyl-1H-pyrazolo[3,4-d]pyrimidin-6-yl)amino)-1,2,3,4-tetrahydroisoquinoline-2-carbonyl)-7-azaspiro[3.5]nonan-7-yl)-2-(2,6-dioxopiperidin-3-yl)isoindoline-1,3-dione]
DC50: 0.1 to 10 nM

Cc1cccc(C)c1Nc1nn(C)c2nc(Nc3ccc4c(c3)CN(C(=O)CC3CCN(c5ccc6c(c5)C(=O)N(C5CCC(=O)NC5=O)C6=O)CC3)CC4)ncc12 (stereo not shown) [Compound 125, 5-(4-(2-(7-((3-((2,6-Dimethylphenyl)amino)-1-methyl-1H-pyrazolo[3,4-d]pyrimidin-6-yl)amino)-3,4-dihydroisoquinolin-2 (1H)-yl)-2-oxoethyl)piperidin-1-yl)-2-(2,6-dioxopiperidin-3-yl)isoindoline-1,3-dione]
DC50: 0.1 to 10 nM
